Assay [1] concerns the target T1, PanZ (Escherichia coli, UniProt P37613).
T1 construct: His-tagged PanZ from pCA24N(-GFP)-his-panZ, expressed in E. coli delta-panD delta-panZ (DE3); Ni-NTA and Superdex 75; monomer; copurifies partly with CoA
T1 sequence (P37613 1-127): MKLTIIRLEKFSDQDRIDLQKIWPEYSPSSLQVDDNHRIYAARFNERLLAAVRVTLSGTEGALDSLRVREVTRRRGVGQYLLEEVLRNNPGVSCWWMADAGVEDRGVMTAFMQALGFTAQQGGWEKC
The assay is described as follows: isothermal titration calorimetry. The format is binding. The text has this:
isothermal titration calorimetry on PanZ
(In general: ITC needs no label: the signal is the heat of the interaction.)

In assay [2] the target is T1, PanZ. The assay is described as follows: isothermal titration calorimetry. It counts as binding. As to conditions: pH 7.4, 25 °C; sample contains copurified CoA.

Structures are written as SMILES.

The term Kd denotes the free concentration of one partner at which half of the binding sites on the other are occupied at equilibrium, for simple one-to-one binding. A high value points to lower affinity.

In assay [1], `CC(C)(COP(=O)(O)OP(=O)(O)OC[C@H]1O[C@@H](n2cnc3c(N)ncnc32)[C@H](O)[C@@H]1OP(=O)(O)O)[C@@H](O)C(=O)NCCC(=O)NCCS` [CoA] showed a Kd of 1950 ± 160 nM.

For `CC(=O)SCCNC(=O)CCNC(=O)[C@H](O)C(C)(C)COP(=O)(O)OP(=O)(O)OC[C@H]1O[C@@H](n2cnc3c(N)ncnc32)[C@H](O)[C@@H]1OP(=O)(O)O` [acetyl CoA], the isothermal titration calorimetry entry in assay [2] was “titration of CoA and AcCoA into PanZ showed binding”.

Values taken from PMC3473359, “Formation of a heterooctameric complex between aspartate α-decarboxylase and its cognate activating factor, PanZ, is CoA-dependent” (Biochemical and Biophysical Research Communications, 2012).
